Measurements as given in patent US20090035295A1, “Screening Method, Process for Purifying of Non-Diffusible A-Beta Oligomers, Selective Antibodies Against Said Non-Diffusible a-Beta Oligomers and a Process for Manufacturing of Said Antibodies” (Abbott GmgH & Co. KG, priority 2005, published 2009).
“Also recorded” adds a separate entry of the source. No end group written: not given here.

Tests used:
[1] = In vitro stability in PBS at different temperatures, SDS-PAGE; format: physicochemical
Protocol: The sample at 0.5 mg/ml in 20 mM NaH2PO4; 140 mM NaCl; pH 7.4 was incubated at room temperature and 37° C. for 1 day and 4 days, respectively. An aliquot of 10 μl of the samples was analyzed by SDS-PAGE.
An aliquot of 100 μl of each of the samples was analyzed by SDS-PAGE.

[2] = tested on: long-term potentiation; assay: Long-term potentiation in rat brain slices (CA1 field potentials); format: cell-based
Protocol: Slices were prepared from male Sprague-Dawley rats (7-8 weeks old). Isolated hemispheres were trimmed and then cut using a vibratome. Slices ([…]) were directly transferred to an interface recording chamber and continuously perfused at 33° C. with oxygenated artificial CSF (aCSF: 118 mM NaCl, 1.24 mM KH2PO4, 10 mM glucose, 2 mM MgSO4, 2.5 mM CaCl2, 5 mM KCl, 25.6 mM NaHCO3) at a flow rate of 1.8 ml/min. Freshly prepared slices were allowed to equilibrate for at least one hour before recording. Field potentials were obtained from stratum radiatum of CA1 using glass microelectrodes (0.8-1.2 MΩ) filled with aCSF. The Schaffer collateral was stimulated by a bipolar tungsten electrode (0.5 MO, Science Products GmbH, Germany). Constant voltage biphasic pulses (0.1 ms/phase; range 1-5 V) were applied once per minute at an intensity yielding 30% of the fEPSP maximum. LTP was induced by 2 trains of 100 Hz (1 sec/train with 10 sec intertrain intervall) using the same intensity and pulse length. […] Signals were digitized by a Power CED 1401 and analyzed using the software Signal 2.14 (Cambridge Electronic Design Ltd., Cambridge). For statistical comparison data were analyzed by 2-way repeated measures ANOVA using SAS.

[3] = tested on: APP/Lo mice; assay: Novel object recognition task after active immunization of APP/Lo mice; format: in vivo, mouse; settings: for RI compared with mice treated with Aβ(1-42) monomer or vehicle: P<0.01, ANOVA, post-hoc Holm-Sidak t-test; for Short term memory for objects: active immunization
From the text: APP [V717I] C57BI×FVB female mice (n=36; 6 weeks old) were used for this study (Moechars et al., 1999). All mice were housed and bred in the animal housing facilities of the Catholic University Leuven, Campus Gasthuisberg, in accordance with the Belgian ethical law on housing, breeding and handling laboratory animals.
They were genotyped by polymerase chain reaction (PCR) at the age of 3 weeks and were double checked by a second PCR at the onset of the study. All mice were blind randomised, age-matched and allocated randomly to a treatment. Animals were re-caged by treatment group one day before the onset of the study in order to allow them to familiarize to the new cage context. […] The food was stored under dry and cool conditions in a well-ventilated storage room. The amount of water and food was checked daily, supplied when necessary and standard refreshed twice a week. Mice were housed under a reversed day-night rhythm: 14 hours light/10 hours darkness, light starting at 7 p.m., in standard metal cages type RVS T2 (area of 540 cm^2) equipped with solid floors and layer of bedding litter.
The first injection contained 50% (v/v) complete Freund's Adjuvants (Difco Laboratories, Detroit, Mich., USA, ref no 263810) while the boost injections contained 50% (v/v) incomplete Freund's Adjuvant (Difco Laboratories, Detroit, Mich., USA, ref no 263910). Administration of compounds was performed every 3 weeks during 3 months (at week 0/3/6/9/12). • Novel object recognition task in immunized mice:
After the last injection all mice underwent a novel objection recognition task. The protocol used followed the method as described by Dewachter I. et al., Journal of Neuroscience, 2002, 22(9):3445-3453. Mice were familiarized for one hour to a Plexiglas open-field box (52×52×40 cm) with black vertical walls and a translucent floor, dimly illuminated by a lamp placed underneath the box. The next day the animals were placed in the same box and submitted to a 10 minutes acquisition trial. During this trial mice were placed individually in the open field in the presence of object A (blue ball or red cube, similar sized of ±4 cm), and the duration (timeAA) and the frequency (FreqAA) exploring object A (when the animals snout was directed towards the object at a distance of <1 cm and the mice were actively sniffing in the direction of the object) was recorded by a computerized system (Ethovision, Noldus information Technology, Wageningen, the Netherlands). During a 10 minutes retention trial (second trial) performed 3 hours later, a novel object (object B, red cube or blue ball) was placed together with the familiar object (object A) into the open field. (FreqA and FreqB and TimeA and TimeB, respectively).
The recognition index (RI), defined as the ratio of the duration in which the novel object was explored over the duration in which both objects were explored [TimeB/(TimeA+TimeB)×100], was used to measure non-spatial memory. The duration and frequency object A was explored during the acquisition trial (TimeAA and FreqAA) was used to measure curiosity.

[4] = Intracranial injection in rats: in vivo binding and tissue penetration; settings: rat
Protocol: For electrophysiological and histological studies, male Sprague-Dawley rats were obtained from Janvier (France) at an age of about 8 weeks.
The rats (260-430 g) were anesthetized with pentobarbital (60 mg/kg i.p.; Narcoren) and fixed in a stereotaxic apparatus according to Paxinos and Watson^36. […] A total volume of 4.3 μL was infused by a 10 μL Hamilton syringe attached to a motorized micropump (WPI, Germany) during 5 min with the cannula being left in place for additional 2 min. […] The infusion was applied via a 10 μL Hamilton syringe during 5 min with the cannula being left in place for additional 5 min.
Therefore, rats were deeply anesthetized with Narcoren. […] Then, the rats were transcardially perfused with 10 mM PBS (pH 7.2) for 5 min, followed by 4% paraformaldehyde (PFA) in PBS. The brains were removed, postfixed overnight in 4% PFA in PBS containing 30% sucrose and transferred into 30% sucrose in PBS for cryoprotection.
A Cy3-labeled donkey anti-mouse antibody (Jackson Laboratories) was used for fluorescence labelling for 1 h. Between the steps and at the end, sections were thoroughly washed in TBST three times for 5 min, after which they were mounted onto glass slides, air-dried and cover-slipped with Vectashield hardest mounting medium containing DAPI (Vector Laboratories) to visualize cell nuclei. All incubations were performed at room temperature. Some sections were also stained with 0.05% thioflavine S (Sigma, Germany) in 50% ethanol for 10 min, followed by two rinses of 100% ethanol for 5 min before embedding in Vectashield. Analysis of labelling was performed under a confocal fluorescence microscope (Zeiss LSM 510 Meta, Germany).

[5] = tested on: neuronal cell-lines; assay: Binding of Aβ(1-42) globulomer to neuronal cell-lines; format: cell-based; settings: data not shown
[6] = tested on: hippocampal neurons; assay: Binding of Aβ forms to cultured hippocampal neurons (immunofluorescence); format: cell-based, rat
Protocol: (§1) Hippocampal cells from rat brain (QBM Cell Science, Canada) were cultured in 24-well plates on poly-L-lysine coated coverslips (BD Biosciences, Germany) in Neurobasal medium with B27 supplement (Invitrogen, Germany) at 37° C., 5% 002. To some cultures mitosis inhibitors (35 μg/ml uridine, 15 μg/ml 5-fluoro-2′-deoxyuridine) were added at DIV6 to prevent an overgrowing with glia. Unless otherwise stated hippocampal cells were used at DIV13-14.
Cells were rinsed three times with 1 ml medium and fixed with 3.7% buffered formaldehdye (Accustain, Sigma, Germany). Unspecific binding sites were blocked by incubation with 10% normal goat serum in PBS (pH 7.4) for 90 min at room temperature to which 0.1% Triton X-100 was added in the case of intracellular counterstaining. […] After each antibody incubation cells were washed three times with PBS and finally mounted in ProLong antifade reagent (Molecular Probes, Germany).

[7] = tested on: glia; assay: Binding of Aβ(1-42) globulomer to glia in hippocampal cultures; format: cell-based, rat; settings: hippocampal preparation, GFAP positive cells
Protocol: as §1, with “DIV13-14. When Aβ-forms were added, 750 μL fresh 37° C. warm medium containing the Aβ-forms were exchanged of the total 1 ml. Incubation took place for 15 min at 37° C., 5% CO2.” for “DIV13-14.”
Cells were rinsed three times with 1 ml medium and fixed with 3.7% buffered formaldehdye (Accustain, Sigma, Germany). Unspecific binding sites were blocked by incubation with 10% normal goat serum in PBS (pH 7.4) for 90 min at room temperature to which 0.1% Triton X-100 was added in the case of intracellular counterstaining. Primary antibodies (anti Aβ 6E10 (Signet Laboratories, USA), 1:2000; anti GFAP (Dako Cytomation, Germany), 1:2500; anti MAP2 (Chemicon International, Germany), 1:1000) and secondary antibodies (Alexa 488, 1:500; Alexa 635, 1:500; Molecular Probes, Germany) were subsequently incubated for 2 h at room temperature in 10% normal goat serum in PBS (pH 7.4). […]

[8] = biological target: T1, Aβ(1-42) globulomer formation (Homo sapiens, UniProt P05067); assay: Induction of Aβ(1-42) globulomer formation by fatty acids replacing SDS (SDS-PAGE); format: biochemical; settings: fatty acid in place of SDS, neutral pH
T1 construct: Aβ(1-42) synthetic peptide (Cat. No. H-1368, Bachem, Switzerland); purchased Bachem H-1368; host or cells: chemical synthesis; oligomerised in house (HFIP, DMSO, 0.2% SDS or 0.5% fatty acid, dilution)
T1 sequence (P05067 672-713 limits assumed): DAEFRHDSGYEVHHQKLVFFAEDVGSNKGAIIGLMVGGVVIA
Protocol: Lanes: (1) control without inducing agent, (2) positive control with 0.2% SDS, (3) 0.5% lauric acid (12:0), (4) 0.5% oleic acid (18:1), (5) linoleic acid […], (6) eicosapentanoic acid (20:5), (7) docosatetranoic acid (22:4), (8) docosahexanoic acid (22:6), (9) positive control with 0.2% SDS, (10) 1% arachidonic acid. Yields of Aβ(1-42) globulomer (g, indicated with arrowheads) differ between various fatty acids;
A solution of Aβ(1-42) globulomers was prepared as described in example 5a of WO2004/067561. Briefly, Aβ(1-42) synthetic peptide (Cat. No. H-1368, Bachem, Switzerland) was suspended in 1,1,1,3,3,3-hexafluoro-2-propanol (HFIP) at […] and incubated for complete solubilization under shaking at 37° C. for 1.5 h. HFIP was removed by evaporation in a SpeedVac and Aβ(1-42) resuspended at a concentration of 5 mM in dimethyl sulfoxide (DMSO) and 20 sec sonicated. The HFIP pretreated Aβ(1-42) was diluted in phosphate buffered solution (PBS) (20 mM NaH2PO4, 140 mM NaCl, pH 7.4) to 400 μM and 1/10 volume 2% SDS (in H2O) added (final concentration of 0.2% sodium dodecyl sulfate (SDS)).

For “Aβ(1-42) globulomer: soluble, globular, non-covalent association of about 12 Aβ(1-42) peptides generated from synthetic peptide with SDS”, the “Stable in PBS” value ([1]; PBS, ambient temperature and 37° C.) was “at least 4 days”, the “Globulomer structure maintained without disassembly or further polymerization to fibrils” value ([1]; in vitro, physiological temperature (37° C.)) was “up to 4 days” and the “Time after tetanization at which potentiation was significantly impaired (as early as)” value ([2]; 42 nM, p<0.05) was 5 min. For the same compound, the “High frequency stimulation-induced LTP” value ([2]; 42 nM, rat brain slices) was “completely blocks; also recorded: complete block”, the “Basic synaptic functioning (input/output relation)” value ([2]; treated versus untreated slices) was “not impaired” and the “RI compared with mice treated with Aβ(1-42) monomer or vehicle” value [3] was “significantly higher”. The “Short term memory for objects” value [3] was “selectively improved”, the “Binding to cells of the ventricle walls” value ([4]; injection into ventricle) was “rapid and persistent binding” and the “Cell toxicity along the ventricle wall (cell density)” value ([4]; injection into ventricle) was “without obvious cell toxicity”. For the same compound, the “Diffusion from ependyme into underlying brain tissue” value ([4]; injection into ventricle) was “without detectable diffusion”, the “Presence in cerebrospinal fluid after injection” value ([4]; injection into ventricle, data not shown) was “completely disappeared” and the Tissue penetration ([4]; intracerebral injection) was “Poor tissue penetration”. For the same compound, the “Binding to neuronal cell-lines” value [5] was “negative”, the “Binding to hippocampal neurons” value ([6]; 200 nM based on monomer (17 nM globulomer), 15 min, 37° C.) was “strong binding” and the “Hippocampal neurons binding globulomer” value ([6]; DIV8) was −1%. The Binding to glia [7] was “did not bind”.
For `CCCCCCCCCCCC(=O)O` [lauric acid], the “Induction of the characteristic 38/48 kDa Aβ(1-42) globulomer” value (shortened to “Induction”) [8] was “induced”.
In the case of `CC/C=C\C/C=C\C/C=C\C/C=C\C/C=C\CCCC(=O)O` [eicosapentanoic acid], the “Induction” value [8] was “created a partly shifted oligomer”.
For `CC/C=C\C/C=C\C/C=C\C/C=C\C/C=C\C/C=C\CCC(=O)O` [docosahexanoic acid], the “Induction” value [8] was “could not generate”.
In the case of `CCCCCCCC/C=C\CCCCCCCC(=O)O` [oleic acid], the “Induction” value [8] was “induced”.
For docosatetranoic acid, the “Induction” value [8] was “could not generate”.
For “Aβ(20-42) globulomer: truncated globulomer from Aβ(20-42) peptide or thermolysin proteolysis of Aβ(1-42) globulomer (FAEDVGSNKGAIIGLMVGGVVIA; also: globulomer (oligomeric assembly))”, the “RI compared with mice treated with Aβ(1-42) monomer or vehicle” value [3] was “significantly higher”, the “Short term memory for objects” value [3] was “selectively improved” and the “Recognition index (RI)” value ([3]; second encounter, 3 hours after acquisition, P<0.01 vs chance level) was “more than 50%”.
For `CCCCC/C=C\C/C=C\CCCCCCCC(=O)O` [linoleic acid], the “Induction” value [8] was “could not generate”.
For `CCCCC/C=C\C/C=C\C/C=C\C/C=C\CCCC(=O)O` [arachidonic acid], the “Induction” value [8] was “induced”.
